Source: ChEMBL document CHEMBL1122202, “Ultra-short-acting beta-adrenergic receptor blocking agents. 1. (Aryloxy)propanolamines containing esters in the nitrogen substituent” (J Med Chem, 1982)
Active and inactive are the calls of the source. No cut-off for these calls is given here.

Key:
[1] = target: T1, Beta-1 adrenergic receptor (Cavia porcellus, UniProt B0FL73); test: In vitro ability to block beta-1 adrenergic receptor in guinea pig right atria.; settings: read-out: pA2 (converted)
[2] = target: T1, Beta-1 adrenergic receptor; test: The compound was tested in vitro for its ability to block Beta-1 adrenergic receptor in guinea pig right atria; settings: read-out: pA2 (converted)
[3] = target: Beta-1 adrenergic receptor (Cavia porcellus) (UniProt B0FL73); test: The compound was tested in vivo for its ability to block […] adrenergic receptor n guinea pig right atria at a duration of 3h; type: organism-based
[4] = target: Beta-2 adrenergic receptor (Cavia porcellus) (UniProt Q8K4Z4); test: The compound was tested in vitro for its ability to block Beta-2 adrenergic receptor in guinea pig trachea; Inactive at 10E-5 M; type: tissue-based
[5] = target: Beta-1 adrenergic receptor (Cavia porcellus) (UniProt B0FL73); test: The compound was tested in vitro for its ability to block Beta-1 adrenergic receptor in guinea pig right atria; Inactive at 10E-5 M
[6] = target: Beta-2 adrenergic receptor (Cavia porcellus, UniProt Q8K4Z4); test: In vitro ability to block beta-2 adrenergic receptor in guinea pig trachea.; type: tissue-based; settings: read-out: pA2 (converted)
[7] = target: Beta-2 adrenergic receptor (Cavia porcellus); test: The compound was tested in vitro for its ability to block beta-2-adrenergic receptor in guinea pig trachea; settings: read-out: pA2 (converted)
[8] = target: Beta-1 adrenergic receptor (Cavia porcellus) (UniProt B0FL73); test: In vivo inhibition of Beta-1 adrenergic receptor in guinea pig right atria after 40 min; type: functional, organism-based
[9] = target: Beta-1 adrenergic receptor (Cavia porcellus) (UniProt B0FL73); test: The compound was tested in vivo for its ability to block Beta-1 adrenergic receptor in guinea pig right atria at a duration of 3h; type: functional, organism-based
[10] = Cardioselectivity expressed as antilog of pA2 (atria)-pA2 (trachea).
[11] = target: Beta-1 adrenergic receptor (Cavia porcellus) (UniProt B0FL73)
Description: The compound was tested in vivo for its ability to block Beta-1 adrenergic receptor in guinea pig right atria at a duration of 40 min

[12] = target: T1, Beta-1 adrenergic receptor; test: The compound was tested in vitro for its ability to block Beta-1 adrenergic receptor n guinea pig trachea; type: tissue-based; settings: read-out: pA2 (converted)

Chain of Beta-2 adrenergic receptor (Q8K4Z4 whole entry): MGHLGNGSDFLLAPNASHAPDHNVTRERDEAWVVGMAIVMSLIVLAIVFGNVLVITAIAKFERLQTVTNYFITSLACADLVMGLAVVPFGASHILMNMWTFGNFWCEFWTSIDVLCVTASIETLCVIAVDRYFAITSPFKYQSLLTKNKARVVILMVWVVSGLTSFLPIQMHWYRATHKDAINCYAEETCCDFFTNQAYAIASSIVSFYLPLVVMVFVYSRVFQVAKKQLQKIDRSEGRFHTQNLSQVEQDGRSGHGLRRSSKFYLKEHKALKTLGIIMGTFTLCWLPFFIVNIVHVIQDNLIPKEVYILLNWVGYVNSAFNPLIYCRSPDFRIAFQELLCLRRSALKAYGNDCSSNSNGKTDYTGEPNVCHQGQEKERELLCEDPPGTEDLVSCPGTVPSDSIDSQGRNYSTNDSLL
Chain of Beta-1 adrenergic receptor (Cavia porcellus) (B0FL73 1-467): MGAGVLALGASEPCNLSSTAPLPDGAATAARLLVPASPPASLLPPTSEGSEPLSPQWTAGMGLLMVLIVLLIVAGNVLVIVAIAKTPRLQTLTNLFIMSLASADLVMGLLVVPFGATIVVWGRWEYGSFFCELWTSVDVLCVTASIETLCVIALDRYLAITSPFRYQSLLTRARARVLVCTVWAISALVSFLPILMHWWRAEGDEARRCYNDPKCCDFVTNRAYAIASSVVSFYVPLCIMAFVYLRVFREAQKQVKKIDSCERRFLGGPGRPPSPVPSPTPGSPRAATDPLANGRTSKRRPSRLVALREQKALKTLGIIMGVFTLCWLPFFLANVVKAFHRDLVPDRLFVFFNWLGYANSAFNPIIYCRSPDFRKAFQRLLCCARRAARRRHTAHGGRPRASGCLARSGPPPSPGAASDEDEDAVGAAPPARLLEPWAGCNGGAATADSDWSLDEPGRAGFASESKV
T1 sequence (B0FL73 whole entry): as the sequence (B0FL73 1-467) above
Chain of Beta-2 adrenergic receptor (Cavia porcellus) (UniProt Q8K4Z4) (Q8K4Z4 whole entry, looked up): as the sequence (Q8K4Z4 whole entry) above

SMILES | Kb [1] | Kb [6] | also measured
CCOC(=O)CCNCC(O)COc1cccc(OC)c1 (stereo not given) | 398 nM | – | –
O=C(CCNCC(O)COc1ccccc1)Oc1ccccc1 (stereo not given) | – | – | Kb [2]: 398 nM; In vivo duration [3]: > 60 min
O=C1CCCN1CC(O)COc1ccccc1 (stereo not given) | – | – | pA2 [4]: inactive; pA2 [5]: inactive
CCOC(=O)CCNCC(O)COc1c(C)cccc1C (stereo not given) | – | 1000 nM | Kb [2]: 794 nM
COc1ccc(CCOC(=O)CCNCC(O)COc2ccccc2)cc1OC (stereo not given) | 100 nM | – | Kb [7]: 251 nM
CCOC(=O)CCNCC(O)COc1cccc2ccccc12 (stereo not given) | 39.8 nM | 50.1 nM | In vivo duration [8]: 17 min
CC(C)CNCC(O)COc1cccc2ccccc12 (stereo not given) | 2 nM | 1.26 nM | In vivo duration [8]: 46 min; In vivo duration [9]: > 60 min
CCOC(=O)CCCNCC(O)COc1ccccc1C (stereo not given) | – | – | In vivo duration [8]: 15 min; In vivo duration [9]: > 60 min
COC(=O)CCNCC(O)COc1cccc2ccccc12 (stereo not given) | – | 100 nM | –
CCOC(=O)CNCC(O)COc1cccc2ccccc12 (stereo not given) | – | – | In vivo duration [8]: 53 min
CCOC(=O)CCNCC(O)COc1ccc(Cl)cc1 (stereo not given) | – | – | pA2 [5]: inactive
O=C1CCC(=O)N1CC(O)COc1ccccc1 (stereo not given) | – | – | pA2 [5]: inactive
CCOC(=O)C(NCC(O)COc1ccccc1C)C(=O)OCC (stereo not given) | 1260 nM | – | –
NCC(O)COc1ccccc1 (stereo not given) | 126 nM | 1260 nM | Cardio selectivity [10]: 10
CCOC(=O)CCNCC(O)COc1ccccc1 (stereo not given) | – | – | In vivo duration [11]: 29 min
CC(C)CNCC(O)COc1ccccc1 (stereo not given) | 10 nM | 39.8 nM | Cardio selectivity [10]: 5
CCOC(=O)c1ccc(NCC(O)COc2ccccc2C)cc1 (stereo not given) | 7940 nM | – | –
O=C(CCNCC(O)COc1ccccc1)Oc1ccc(F)cc1 (stereo not given) | – | – | Kb [2]: 2000 nM

SMILES | Kb [1] | Kb [6] | also measured
CCOC(=O)CNCC(O)COc1ccccc1C (stereo not given) | 1260 nM | – | –
COC(=O)CCNCC(O)COc1ccccc1C (stereo not given) | 31.6 nM | – | –
CCOC(=O)c1ccc(CNCC(O)COc2ccccc2C)cc1 (stereo not given) | 251 nM | – | Kb [12]: 1260 nM; Cardio selectivity [10]: 5
CCOC(=O)CCNCC(O)COc1ccccc1Cl (stereo not given) | – | – | In vivo duration [9]: > 60 min
CCOC(=O)c1cccc(NCC(O)COc2ccccc2C)c1 (stereo not given) | 6310 nM | – | –
CCOC(=O)CCNCC(O)COc1ccc(OC)cc1 (stereo not given) | 1580 nM | – | –
CCOC(=O)CCNCC(O)COc1ccccc1C (stereo not given) | 31.6 nM | – | In vivo duration [8]: 14 min
CCOC(=O)CCNCC(O)COc1cccc(C)c1 (stereo not given) | 200 nM | – | –
Cc1ccccc1OCC(O)CNCC(C)C (stereo not given) | 2.51 nM | 6.31 nM | –
NC(=O)CNCC(O)COc1cccc2ccccc12 (stereo not given) | 631 nM | 631 nM | –
CCOC(=O)CCCCNCC(O)COc1ccccc1C (stereo not given) | 15.8 nM | – | In vivo duration [8]: 20 min
COC(=O)CNCC(O)COc1ccccc1C (stereo not given) | 3160 nM | 2000 nM | –
CCOC(=O)CCNCC(O)COc1cccc(Cl)c1 (stereo not given) | – | – | In vivo duration [9]: > 60 min
O=C(CCNCC(O)COc1ccccc1)OCC(F)(F)F (stereo not given) | 2000 nM | – | –
O=C(O)CNCC(O)COc1ccccc1 (stereo not given) | – | – | pA2 [4]: inactive; pA2 [5]: inactive
CCOC(=O)CC(C)(C)NCC(O)COc1ccccc1C (stereo not given) | 3.16 nM | 7.94 nM | In vivo duration [9]: > 60 min
NCC(O)COc1cccc2ccccc12 (stereo not given) | 316 nM | 501 nM | –
